Results: US20230013669A1, “Antibacterial Treatment Using a Cannabinoid and an Active Agent” (priority 2019, published 2023)
Where “and” joins values, the source holds several entries; their conditions need not be identical. Identical values can stand only once.

Tested on: Acinetobacter baumannii ATCC 19606 (GN_034)
Experiment: Synergy of cannabidiol with cell-wall disrupting agent (CBD MIC in combination, FICI)
Type: cell-based
Method: The compounds were stored short term at 4° C.
Analysis was performed using Microsoft Excel.

[1] = CBD with Colistin, Acinetobacter baumannii ATCC 19606
[2] = CBD with MCC_6442, Acinetobacter baumannii ATCC 19606

SMILES: C=C(C)C1CCC(C)=CC1c1c(O)cc(CCCCC)cc1O (centres unmarked) [Cannabidiol, 2-[3-methyl-6-(1-methylethenyl)-2-cyclohexen-1-yl]-5-pentyl-1,3-benzenediol]
- FICI (CBD with Aztreonam at 8 μg/mL, CBD MIC taken as 256 μg/mL): 0.375
- FICI (CBD with Aztreonam at 16 μg/mL, CBD MIC taken as 256 μg/mL): 0.5
- FICI range (CBD with Aztreonam, all tested concentrations (Table 74)): 0.25-1.06
- FICI (CBD with Cefepime at 0.25 μg/mL, CBD MIC taken as 256 μg/mL): 1.016
- FICI (CBD with Cefepime at 0.5 μg/mL, CBD MIC taken as 256 μg/mL): 1.031
- FICI (CBD with Cefepime at 1 μg/mL, CBD MIC taken as 256 μg/mL): 1.0625
- FICI (CBD with Cefepime at 2 μg/mL, CBD MIC taken as 256 μg/mL): 1.125
- FICI (CBD with Cefepime at 4 μg/mL, CBD MIC taken as 256 μg/mL): 0.375
- FICI (CBD with Cefepime at 8 μg/mL, CBD MIC taken as 256 μg/mL): 0.5625
- FICI range (CBD with Cefepime, Synergy table (Table 81)): 0.38
- FICI range (CBD with Cefepime, all tested concentrations (Table 79)): 0.38-1.13
- FICI (CBD with Cefotetan at 4 μg/mL, CBD MIC taken as 256 μg/mL): 1.016
- FICI (CBD with Cefotetan at 8 μg/mL, CBD MIC taken as 256 μg/mL): 1.031
- FICI (CBD with Cefotetan at 16 μg/mL, CBD MIC taken as 256 μg/mL): 1.0625
- FICI (CBD with Cefotetan at 32 μg/mL, CBD MIC taken as 256 μg/mL): 1.125
- FICI (CBD with Cefotetan at 64 μg/mL, CBD MIC taken as 256 μg/mL): 1.25
- FICI (CBD with Cefotetan at 128 μg/mL, CBD MIC taken as 256 μg/mL): 1.5
- FICI range (MIC table) (CBD with Cefotetan, Acinetobacter baumannii ATCC 19606): 1.02-1.5
- FICI (CBD with Ceftazidime at 0.5 μg/mL, Acinetobacter baumannii ATCC 19606): 1.125
- FICI (CBD with Ceftazidime at 1 μg/mL, Acinetobacter baumannii ATCC 19606): 1.25
- FICI (CBD with Ceftazidime at 2 μg/mL, Acinetobacter baumannii ATCC 19606): 1.5
- FICI (CBD with Ceftazidime at 4 μg/mL, Acinetobacter baumannii ATCC 19606): 1.125
- FICI (CBD with Ceftazidime at 8 μg/mL, Acinetobacter baumannii ATCC 19606): 2.0625
- FICI (CBD with Ceftazidime at 16 μg/mL, Acinetobacter baumannii ATCC 19606): 4
- FICI range (MIC table) (CBD with Ceftazidime, Acinetobacter baumannii ATCC 19606): 1.13-4
- FICI (CBD with Cefuroxime at 4 μg/mL, Acinetobacter baumannii ATCC 19606): 1.0625
- FICI (CBD with Cefuroxime at 8 μg/mL, Acinetobacter baumannii ATCC 19606): 1.125
- FICI (CBD with Cefuroxime at 16 μg/mL, Acinetobacter baumannii ATCC 19606): 0.375
- FICI (CBD with Cefuroxime at 32 μg/mL, Acinetobacter baumannii ATCC 19606, listed as CBD): 0.5625 and 0.625
- FICI (CBD with Cefuroxime at 64 μg/mL, Acinetobacter baumannii ATCC 19606): 1
- FICI (CBD with Cefuroxime at 128 μg/mL, Acinetobacter baumannii ATCC 19606): 2
- FICI range (Synergy table) (CBD with Cefuroxime, Acinetobacter baumannii ATCC 19606): 0.38
- FICI (CBD with Colistin at 0.031 μg/mL, Acinetobacter baumannii ATCC 19606): 0.04662
- FICI (CBD with Colistin at 0.062 μg/mL, Acinetobacter baumannii ATCC 19606): 0.06981
- FICI (CBD with Colistin at 0.5 μg/mL, Acinetobacter baumannii ATCC 19606, listed as CBD): 0.501 and 0.5039
- FICI (CBD with Colistin at 1 μg/mL, Acinetobacter baumannii ATCC 19606): 1
- FICI range (MIC table) [1]: 0.05-1
- FICI range (Synergy table) [1]: 0.05-0.5
- FICI range (MIC table) [2]: 0.07-1.02
- FICI range (Synergy table) [2]: 0.09-1.13
- FICI (CBD with MCC_6442 at 0.5 μg/mL, Acinetobacter baumannii ATCC 19606): 1.016
- FICI (CBD with MCC_6442 at 1 μg/mL, Acinetobacter baumannii ATCC 19606): 0.09375
- FICI (CBD with MCC_6442 at 2 μg/mL, Acinetobacter baumannii ATCC 19606): 0.06641
- FICI (CBD with MCC_6442 at 4 μg/mL, Acinetobacter baumannii ATCC 19606): 0.127
- FICI range (CBD with Octapeptin C4, Synergy table (Table 85), listed as CBD): 0.28-0.5 and 0.19-0.5
- FICI range (CBD with Octapeptin C4, all tested concentrations (Table 83), listed as CBD): 0.28-1.13 and 0.19-1.06
- FICI (CBD with Octapeptin C4 at 0.25 μg/mL, CBD MIC taken as 256 μg/mL): 1.031
- FICI (CBD with Octapeptin C4 at 0.25 μg/mL, CBD MIC taken as 256 μg/mL, listed as cannabidiol): 1.016
- FICI (CBD with Octapeptin C4 at 0.5 μg/mL, CBD MIC taken as 256 μg/mL): 1.0625 and 1.031
- FICI (CBD with Octapeptin C4 at 1 μg/mL, CBD MIC taken as 256 μg/mL): 1.125 and 1.0625
- FICI (CBD with Octapeptin C4 at 2 μg/mL, CBD MIC taken as 256 μg/mL): 0.2812 and 0.1875
- FICI (CBD with Octapeptin C4 at 4 μg/mL, CBD MIC taken as 256 μg/mL): 0.5078 and 0.2578
- FICI (CBD with Octapeptin C4 at […], CBD MIC taken as 256 μg/mL): 1.016
